Read-outs that look alike come from different tables or passages of the source.
How the values were obtained:
[1] = molecular target: T1, AQ STING (truncated human STING G230A-R293Q allelic form) (Homo sapiens, UniProt Q86WV6, G230A/H232R/R293Q); assay: Differential Scanning Fluorimetry with AQ STING; assay type: binding; conditions: for ΔTm at 150 µM: read-out: DSF ΔTm (° C.) AQ STING
T1 construct: truncated human WT STING or AQ STING (amino acid residues 140-343); 8xHis (N, cleaved yes); SUMO (N, cleaved yes); made in house; host or cells: E. coli Rosetta-gami B (DE3)
Method: (§1) Purified PCR products were cleaved with restriction enzymes BamHI (cat. #R0136S, NEB, Ipswich, USA) and NotI (cat. #R0189S, NEB, Ipswich, USA) and cloned into the pSUMO vector linearized with the identical enzymes.
(§2) DNase I (cat. #D5025, Sigma Aldrich, Czech Republic) and RNase A (cat. #R6513, Sigma Aldrich, Czech Republic) were added (final concentration […]) together with MgCl2 (final concentration 5 mmol·l^−1) to the homogenate and bacteria were lysed using French Press G-M™ High-Pressure Cell Press Homogenizer (1500 psi, 3 cycles). […] The resin was poured into a chromatography column, washed with 50 ml buffer A (50 mmol·l^−1 TrisCl (pH 8.0), 800 mmol·l^−1 NaCl, 3 mmol·l^−1β-mercaptoethanol; 10% glycerol; 20 mmol·l^−1 imidazole) and 8-His-SUMO tagged STING proteins were eluted with 15 ml buffer A containing 300 mmol·l^−1 imidazole. […] Proteins were concentrated with Amicon® Ultra-15 10 K device (cat. #UFC901008, Merck Millipore, Billerica, USA) and flash frozen in liquid N2.
(§3) Differential Scanning Fluorimetry with WT STING and AQ STING
(§4) 20 μL solutions of the reaction mixtures were pipetted in triplicates into 96 well optical reaction plates and thermal denaturation of samples were performed on real time PCR cycler (LightCycler® 480 Instrument II—Roche, Base^1, Switzerland). The first derivative of the thermal denaturation curves was performed to calculate denaturing temperatures of STING-CDN complexes and STING apoproteins. The thermal shift for each CDN was calculated by subtracting the average denaturing temperature of STING apoprotein from the average denaturing temperature of STING CDN complex.

[2] = molecular target: human wild type STING (WT STING) (Homo sapiens, UniProt Q86WV6, H232R); assay: Digitonin assay using 293T wtSTING-FL reporter cells (ISRE firefly luciferase reporter); assay type: cell-based; conditions: 293T wtSTING-FL cells; 30 min in Digitonin buffer, then 5 hours; luciferase read-out; 8-point dose-response curve; read-out: Digitonin assay EC50 (μmol · l^−1) WT STING
Text: Two complementary oligonucleotides of the sequence […] […] […] […] […] The oligonucleotides were mixed in equal molar amounts, hybridized, and cleaved by restriction endonucleases HindIII (cat. #. R0104S, NEB, Ipswich, USA) and BglII (cat. #R0144S, NEB, Ipswich, USA). Ultimately, they were ligated into plasmid pGL4.27 (cat. #E6651, Promega, Madison, USA) linearized with the same enzymes. As result the sequence with four ISRE sites was placed upstream of the minimum promoter of firefly luciferase reporter gene.
After 5 minutes incubation at room temperature (RT), 250 μL of the mixture was added dropwise to the cells in one well.
Transfected cells were seeded onto poly-D-lysine coated six well plates at density 50,000 cells per 1 cm^2 in DMEM medium with high glucose containing 10% heat inactivated FBS, 30 μg/mL blasticidin (cat. #ant-bl-05, InvivoGen, San Diego, USA), 0.06 mg/ml Penicillin G and 0.1 mg/ml Streptomycin Sulfate (both cat. #. L0018, Biowest, Riverside, USA). The medium was replenished every 3-4 days until visible colonies of cells resistant to blasticidin were formed.
Blasticidin resistant cells stably expressing WT STING were further transfected with […] plasmid following the same procedure as described above. […] Homogeneous culture of stably double transfected cells was prepared by limiting dilution of cells in 96 well plates and wells with cells were selected that originated from a single cell.
The medium was removed next day and three fold serial dilutions of compounds in Digitonin buffer containing 50 mmol·l^−1 HEPES (cat. #H3375, Sigma Aldrich, Czech Republic) pH 7.0, 100 mmol·l^−1 KCl, 3 mmol·l^−1 MgCl2, 0.1 mmol·l^−1 DTT (cat. #D0632, Sigma Aldrich, Czech Republic), 85 mmol·l^−1 Sucrose (cat. #S7903, Sigma Aldrich, Czech Republic), 0.2% BSA (cat. #A2153, Sigma Aldrich, Czech Republic), 1 mmol·l^−1 ATP (cat. #A1852, Sigma Aldrich, Czech Republic), 0.1 mmol·l^−1 GTP (cat. #G8877, Sigma Aldrich, Czech Republic), and 10 μg/mL Digitonin A (cat. #D141, Sigma Aldrich, Czech Republic) were added to the cells. The buffer was removed after 30 minutes incubation at 37° C. with 5% CO2, the cells were washed once with 100 μl of cultivation medium, and 100 IA of medium was added to each well. The plates with cells were incubated for 5 hours at 37° C. with 5% CO2, 50 μl of the medium was removed and 30 μl of ONE-Glo™ Luciferase Assay System reagent (cat. #E6120, Promega, Madison, USA) was added to each well. Luminesce was read on Synergy H1 (Biotek, Winooski, USA).

[3] = molecular target: T2, WT STING (truncated human WT STING protein) (Homo sapiens, UniProt Q86WV6, H232R); assay: Differential Scanning Fluorimetry with WT STING; assay type: binding; conditions: for ΔTm at 150 µM: read-out: DSF ΔTm (° C.) WT STING
T2 construct: truncated human WT STING or AQ STING (amino acid residues 140-343); 8xHis (N, cleaved yes); SUMO (N, cleaved yes); made in house; host or cells: E. coli Rosetta-gami B (DE3)
Method: as §1, §2, §3, §4

[4] = thermal shift vs apoprotein, 150 μM CDN, 0.1 mg/ml STING protein, SYPRO Orange

T1 sequence (Q86WV6 140-343 G230A/H232R/R293Q): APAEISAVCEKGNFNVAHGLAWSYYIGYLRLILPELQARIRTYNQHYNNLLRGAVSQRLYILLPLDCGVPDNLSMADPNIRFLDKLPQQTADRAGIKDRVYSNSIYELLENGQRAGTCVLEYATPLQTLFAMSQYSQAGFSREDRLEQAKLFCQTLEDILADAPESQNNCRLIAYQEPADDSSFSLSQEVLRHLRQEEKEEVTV
human wild type STING (WT STING), sequence (Q86WV6 whole entry H232R): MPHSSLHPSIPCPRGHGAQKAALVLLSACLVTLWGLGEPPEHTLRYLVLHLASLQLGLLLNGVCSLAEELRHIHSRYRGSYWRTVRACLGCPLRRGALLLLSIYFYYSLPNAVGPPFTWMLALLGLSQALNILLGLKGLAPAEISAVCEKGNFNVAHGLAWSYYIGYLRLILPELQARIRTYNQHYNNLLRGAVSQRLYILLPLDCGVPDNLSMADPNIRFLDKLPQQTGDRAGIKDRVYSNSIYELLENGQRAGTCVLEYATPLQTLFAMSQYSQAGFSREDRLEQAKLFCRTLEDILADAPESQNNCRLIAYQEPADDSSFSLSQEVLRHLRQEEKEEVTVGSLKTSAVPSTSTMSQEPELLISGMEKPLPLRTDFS
T2 sequence (Q86WV6 140-343 H232R): as the sequence (Q86WV6 140-343 G230A/H232R/R293Q) above, with A91G, Q154R counted along it

Row | SMILES | ΔTm at 150 µM [1, 4] | EC50 [2] | ΔTm at 150 µM [3, 4] | DSF ΔTm (° C.) AQ STING [1, 4] | DSF ΔTm (° C.) WT STING [3, 4] | ΔTm at 150 µM [1] | ΔTm at 150 µM [3]
1 | Nc1nc2c(ncn2[C@@H]2O[C@@H]3COP(=O)(O)O[C@@H]4[C@H](O)[C@@H](COP(=O)(O)CO[C@H]3[C@H]2F)O[C@H]4n2cnc3c(N)ncnc32)c(=O)[nH]1 [Example 14, (1R,6R,8R,9R,10R,16R,18R,19R)-8-(2-amino-6-oxo-6,9-dihydro-1H-purin-9-yl)-18-(6-amino-9H-purin-9-yl)-9-fluoro-3,13,19-trihydroxy-2,4,7,11,14,17-hexaoxa-3λ^5,13λ^5-diphosphatricyclo[14.2.1.0^6,^10]nonadecane-3,13-dione] | 14.2 °C | 80 nM | 6.7 °C |  |  |  | 
2 | Nc1nc2c(ncn2[C@@H]2O[C@@H]3COP(=O)(O)CO[C@H]4[C@@H](F)[C@H](n5cnc6c(N)ncnc65)O[C@@H]4COP(=O)(O)O[C@@H]2[C@@H]3O)c(=O)[nH]1 [Example 10, (1R,6R,8R,9R,10R,16R,18R,19R)-18-(2-amino-6-oxo-6,9-dihydro-1H-purin-9-yl)-8-(6-amino-9H-purin-9-yl)-9-fluoro-3,13,19-trihydroxy-2,4,7,11,14,17-hexaoxa-3λ^5,13λ^5-diphosphatricyclo[14.2.1.0^6,^10]nonadecane-3,13-dione] | 27 °C | 20 nM | 20.9 °C |  |  |  | 
3 | Nc1nc2c(ncn2[C@@H]2O[C@@H]3COP(=O)(O)CO[C@H]4C[C@H](n5cnc6c(N)ncnc65)O[C@@H]4COP(=O)(O)O[C@@H]2[C@@H]3O)c(=O)[nH]1 [Example 15, (1R,6R,8R,10S,16R,18R,19R)-18-(2-amino-6-oxo-6,9-dihydro-1H-purin-9-yl)-8-(6-amino-9H-purin-9-yl)-3,13,19-trihydroxy-2,4,7,11,14,17-hexaoxa-3λ^5,13λ^5-diphosphatricyclo[14.2.1.0^6,^10]nonadecane-3,13-dione] | 19.2 °C | 10 nM | 14.4 °C |  |  |  | 
4 | Nc1ncnc2c1ncn2[C@@H]1O[C@@H]2COP(=O)(O)O[C@H]3[C@@H](O)[C@H](n4cnc5c(N)ncnc54)O[C@@H]3COP(=O)(O)O[C@H]2[C@H]1O [3′3′-c-di-AMP, reference compound] |  | 300 nM |  | 9.3 °C | 2.6 °C |  | 
5 | Nc1ncnc2c1ncn2[C@@H]1O[C@@H]2COP(=O)(O)CO[C@H]3[C@H](O)[C@@H](COP(=O)(O)CO[C@H]2[C@@H]1O)O[C@H]3n1cnc2c(N)ncnc21 [Example 13, (1S,7R,9R,10S,11S,17R,19R,20R)-9,19-bis(6-amino-9H-purin-9-yl)-4,10,14,20-tetrahydroxy-2,5,8,12,15,18-hexaoxa-4λ^5,14λ^5-diphosphatricyclo[15.2.1.0^7,^11]icosane-4,14-dione] | 0.2 °C | > 50000 nM | 0 °C |  |  |  | 
6 | Nc1nc2c(ncn2[C@@H]2O[C@@H]3COP(=O)(O)CO[C@@H]4[C@H](O)[C@@H](COP(=O)(O)CO[C@H]3[C@H]2O)O[C@H]4n2cnc3c(=O)[nH]c(N)nc32)c(=O)[nH]1 [Example 9, (1R,7R,9R,10R,11S,17R,19R,20R)-9,19-bis(2-amino-6-oxo-6,9-dihydro-1H-purin-9-yl)-4,10,14,20-tetrahydroxy-2,5,8,12,15,18-hexaoxa-4λ^5,14λ^5-diphosphatricyclo[15.2.1.0^7,^11]icosane-4,14-dione] |  | > 50000 nM |  |  |  | 1.1 °C | 0.3 °C
7 | Nc1nc2c(ncn2[C@@H]2O[C@@H]3COP(=O)(O)CO[C@H]4C[C@H](n5cnc6c(N)ncnc65)O[C@@H]4COP(=O)(O)O[C@@H]2[C@@H]3F)c(=O)[nH]1 [Example 20, (1S,6R,8R,10S,16R,18R,19R)-18-(2-amino-6-oxo-6,9-dihydro-1H-purin-9-yl)-8-(6-amino-9H-purin-9-yl)-19-fluoro-3,13-dihydroxy-2,4,7,11,14,17-hexaoxa-3λ^5,13λ^5-diphosphatricyclo[14.2.1.0^6,^10]nonadecane-3,13-dione] | 23.5 °C | 5 nM | 17.2 °C |  |  |  | 

More lines, main results first:

Row | ΔTm at 150 µM [1, 4] | EC50 [2] | ΔTm at 150 µM [3, 4] | DSF ΔTm (° C.) AQ STING [1, 4] | DSF ΔTm (° C.) WT STING [3, 4] | SMILES | ΔTm at 150 µM [1] | ΔTm at 150 µM [3]
8 | 18.7 °C | 40 nM | 15.8 °C |  |  | Nc1nc2c(ncn2[C@@H]2O[C@@H]3COP(=O)(O)CO[C@H]4[C@H](O)[C@H](n5cnc6c(N)ncnc65)O[C@@H]4COP(=O)(O)O[C@@H]2[C@@H]3O)c(=O)[nH]1 [Example 16, (1R,6R,8R,9S,10S,16R,18R,19R)-18-(2-amino-6-oxo-6,9-dihydro-1H-purin-9-yl)-8-(6-amino-9H-purin-9-yl)-3,9,13,19-tetrahydroxy-2,4,7,11,14,17-hexaoxa-3λ^5,13λ^5-diphosphatricyclo[14.2.1.0^6,^10]nonadecane-3,13-dione] |  | 
9 | 21 °C | 6 nM | 14.2 °C |  |  | Nc1nc2c(ncn2[C@@H]2O[C@@H]3COP(=O)(O)CO[C@H]4[C@@H](O)[C@H](n5cnc6c(N)ncnc65)O[C@@H]4COP(=O)(O)O[C@@H]2C3)c(=O)[nH]1 [Example 21, (1R,6R,8R,9R,10S,16S,18R)-18-(2-amino-6-oxo-6,9-dihydro-1H-purin-9-yl)-8-(6-amino-9H-purin-9-yl)-3,9,13-trihydroxy-2,4,7,11,14,17-hexaoxa-3λ^5,13λ^5-diphosphatricyclo[14.2.1.0^6,^10]nonadecane-3,13-dione] |  | 
10 | 16 °C | 20 nM | 7.3 °C |  |  | Nc1nc2c(ncn2[C@@H]2O[C@@H]3COP(=O)(O)O[C@H]4[C@@H](F)[C@H](n5cnc6c(N)ncnc65)O[C@@H]4COP(=O)(O)CO[C@@H]2[C@@H]3O)c(=O)[nH]1 [Example 4, (1R,6R,7R,8R,10R,16R,17R,19R)-17-(2-amino-6-oxo-6,9-dihydro-1H-purin-9-yl)-8-(6-amino-9H-purin-9-yl)-7-fluoro-4,13,19-trihydroxy-3,5,9,12,15,18-hexaoxa-4λ^5,13λ^5-diphosphatricyclo[14.2.1.0^6,^10]nonadecane-4,13-dione] |  | 
11 | 25.1 °C | 2 nM | 18.2 °C |  |  | Nc1nc2c(ncn2[C@@H]2O[C@@H]3COP(=O)(O)CO[C@H]4[C@@H](O)[C@H](n5cnc6c(N)ncnc65)O[C@@H]4COP(=O)(O)O[C@@H]2[C@@H]3F)c(=O)[nH]1 [Example 19, (1S,6R,8R,9R,10S,16R,18R,19R)-18-(2-amino-6-oxo-6,9-dihydro-1H-purin-9-yl)-8-(6-amino-9H-purin-9-yl)-19-fluoro-3,9,13-trihydroxy-2,4,7,11,14,17-hexaoxa-3λ^5,13λ^5-diphosphatricyclo[14.2.1.0^6,^10]nonadecane-3,13-dione] |  | 

Source: patent publication US11149052B2, “2′3′-cyclic dinucleotides” (Institute of Organic Chemistry and Biochemistry, ASCR, V.V.I, priority 2018, dated 2021)
